# Source: PMC7690281 (Antiviral Research, 2020)
# Entries after “also recorded” stand apart in the source; their conditions may differ. Structures can show the parent of a compound that is named as a salt.
# Key:
# [1] = system: ASFV early p30 and late p72 proteins; format: cell-based, African swine fever virus (ASFV)
# [2] = system: SARS-2-CoV spike protein-pseudotyped retrovirus (SARS-2-Spp); format: cell-based, SARS-CoV-2
# [3] = system: ASFV viral DNA (p72 gene); format: cell-based, African swine fever virus (ASFV)
# [4] = system: endolysosomal calcium in Vero cells; format: cell-based
# [5] = system: ASFV Bpp30GFP; format: cell-based, African swine fever virus (ASFV); conditions: for reduction of ASFV infectivity: 10 μM
# [6] = system: acidic endosomes of Vero cells; format: cell-based
# [7] = system: VSV pseudovirions with EBOV GP (rVSV-EBOV-luc); format: cell-based, Ebola virus (EBOV)
smiles,measurement,setting,value
"Cl.O=C(c1ccc(OCCN2CCCCC2)cc1)c1c(-c2ccc(O)cc2)sc2cc(O)ccc12 [Raloxifen, Raloxifene hydrochloride]",expression of early viral protein p30 and late viral protein p72,[1],reduction of the expression of early viral protein p30 and late viral protein p72
same,reduction of SARS-2-Spp entry (luciferase levels) compared to vehicle,[2],over 90%
same,viral DNA replication (ASFV genome copy number),[3],reduced viral DNA synthesis
same,distribution of calcium indicator Fluo8,[4],calcium indicator markedly accumulated in fluorescent vesicles
same,distribution of calcium indicator Fluo8 and viral factories,[4],marked accumulation of fluorescent vesicles and the absence of viral factories
same,effect on ASFV infection/entry,[5],potent inhibitory effect; also recorded: strongly reduced ASFV entry
same,reduction of ASFV infectivity,[5],80%
"COc1ccc2cc1Oc1ccc(cc1)C[C@H]1c3cc(c(OC)cc3CCN1C)Oc1c(OC)c(OC)cc3c1[C@H](C2)N(C)CC3 [Tetrandine, Tetrandrine]",reduction of SARS-2-Spp entry (luciferase levels) compared to vehicle,[2],over 99%
"CO/C1=C\C(C)=C\[C@@H](C)[C@@H](O)[C@@H](C)C/C(C)=C/C=C/[C@H](OC)[C@@H]([C@@H](C)[C@@H](O)[C@H](C)[C@@]2(O)C[C@@H](O)[C@H](C)[C@@H](C(C)C)O2)OC1=O [BAF, Bafilomycin]",endosome acidification (LysoTracker Red staining),[6],strong reduction of acidic endosomes
"C[C@]12CC[C@@H]3c4ccc(O)cc4CC[C@H]3[C@@H]1CC[C@@H]2O [Estradiol, β-Estradiol]",effect on ASFV infection/entry,[5],low impact
"C[C@]12CC[C@@H]3c4ccc(O)cc4C[C@@H](CCCCCCCCC[S+]([O-])CCCC(F)(F)C(F)(F)F)[C@H]3[C@@H]1CC[C@@H]2O (stereo partly drawn) [Fulvestran, Fulvestrant]",impact on ASFV infectivity,[5]; 100 μM,under 20%
COc1ccc(CCN(C)CCCC(C#N)(c2ccc(OC)c(OC)c2)C(C)C)cc1OC (stereo not drawn) [Verapamil],reduction of SARS-2-Spp entry (luciferase levels) compared to vehicle,[2],over 90%
"CC/C(=C(\c1ccccc1)c1ccc(OCCN(C)C)cc1)c1ccccc1 [Tamoxifen, Tamoxifen citrate]",expression of early viral protein p30 and late viral protein p72,[1],reduction of the expression of early viral protein p30 and late viral protein p72
same,viral DNA replication (ASFV genome copy number),[3],reduced viral DNA synthesis
same,effect on ASFV infection/entry,[5],potent inhibitory effect; also recorded: strongly reduced ASFV entry
same,reduction of ASFV infectivity,[5],80%
Nc1ccc(C(=O)Nc2cccc(-c3nc(N4CCOCC4)c4oc5ncccc5c4n3)c2)cn1 [YM201636],reduction in the luciferase activity levels (SARS-2-Spp),[2]; 1 μM,65%
Cc1cccc(/C=N/Nc2cc(N3CCOCC3)nc(OCCc3ccccn3)n2)c1 [Apilimod],"infectivity reduction, EBOV GP pseudovirus",[7],over 75%
